Laboratory results from patent US12521393B2, “Cytotoxicity targeting chimeras for CCR2-expressing cells” (GLAXOSMITHKLINE INTELLECTUAL PROPERTY DEVELOPMENT LIMITED, priority 2021, dated 2026).

Tests used:
[1] = tested on: CCR2 expressing cells (CD11b+Ly6c+Hi) in peripheral blood; test: In vivo depletion assay, flow cytometry of peripheral blood (Example 201); set-up: species or system human CCR2 knock-in mice (C57 background); conditions: hCCR2 knock-in mice, IV 0.1 mpk compound + 10 mpk anti-cotinine antibody (SEQ ID NO: 13/14), peripheral blood at 48 hr
Description: Stock solution preparation. Stock solutions of compounds of Formula (I) were prepared at 20 mg/mL and 100 mg/mL in […] for PK/PD and dose tolerability studies respectively. Stock solutions were stored at […] until further usage. on the day of experiment, the stock Solution of the compound of Formula (I) was removed from storage at […] and thawed at room temperature. Anti-cotinine antibody having a heavy chain sequence of SEC ID NO: 13 and a light chain sequence of SEQ ID NO: 14 (rabbit variable region sequence with mouse IgG2a Fc domain), if required was removed from storage at −80° C. and thawed at room temperature. Antibody vials were immediately transferred into wet ice after thawing. Compounds of Formula (I) were further diluted in DMSO as per experimental requirements.
The formulation composition was Saline: DMSI: PBS.
Saline was added based on the quantity required and then stock solution of the compound of Formula (I) prepared in DMSO, followed by addition of antibody in PBS. Formulations were incubated at room temperature for 30 minutes before administration to the mouse. DMSO was used at 1 to % (v/v) in the final formulation.
After bleeding, each mouse was sacrificed by cervical dislocation. […] Flow Cytometry Analysis:
CCR2 depletion in peripheral blood was determined by flow cytometry. Briefly, peripheral blood was collected from all animals at the end of study termination and processed. Blood samples were lysed using 1×RBC Lysis buffer and the resulting cell pellet was washed twice in FACS buffer (HBSS containing 5% FBS). Cells were subjected to Fc blocking using mouse Fc block from Biolegend (Trustain, anti-mouse CD16/32, Cat: 101319) to block non-specific binding followed by surface staining for immune markers (CD45, CD3, CD11 b, Ly6C, human CCR2). Surface staining was done for 30 minutes in ice and cells were washed twice to remove unbound antibodies. Cells were stained with 7AAD to determine viability and acquired on BD FACSVerse flow cytometer. Appropriate FMO controls and single-color controls were included in the experiment for gating and compensation respectively.
Percent depletion of CD11 b+Ly6c+Hi cells and CCR2 expression for the different treatment groups was determined.

[2] = target: human alpha1 nicotinic acetylcholine (nACh) receptor (Homo sapiens, UniProt P02708); test: Nicotinic acetylcholine receptor antagonism assay, IONFlux automated patch clamp (Example 203); assay type: cell-based; conditions: for IC50: antagonism of ACh-stimulated human alpha1 nAChR current, patch clamp; for Emax at 100 µM: maximum percentage antagonism at maximum concentration tested 100 μM, read-out: Maximum Response
human alpha1 nicotinic acetylcholine (nACh) receptor, sequence (P02708 21-457): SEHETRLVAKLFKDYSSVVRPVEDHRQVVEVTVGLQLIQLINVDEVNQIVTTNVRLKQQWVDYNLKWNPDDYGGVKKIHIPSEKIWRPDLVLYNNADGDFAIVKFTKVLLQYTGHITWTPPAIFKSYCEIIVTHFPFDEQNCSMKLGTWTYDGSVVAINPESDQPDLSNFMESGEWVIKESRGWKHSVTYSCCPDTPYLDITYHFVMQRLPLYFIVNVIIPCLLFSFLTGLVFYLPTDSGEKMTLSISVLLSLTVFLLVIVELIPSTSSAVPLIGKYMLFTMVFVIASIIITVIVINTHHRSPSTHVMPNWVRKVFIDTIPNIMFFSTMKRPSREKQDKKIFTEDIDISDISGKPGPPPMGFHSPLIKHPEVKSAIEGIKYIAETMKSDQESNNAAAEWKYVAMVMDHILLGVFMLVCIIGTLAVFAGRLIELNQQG
human alpha1 nicotinic acetylcholine (nACh) receptor, sequence (P11230 24-501 partner): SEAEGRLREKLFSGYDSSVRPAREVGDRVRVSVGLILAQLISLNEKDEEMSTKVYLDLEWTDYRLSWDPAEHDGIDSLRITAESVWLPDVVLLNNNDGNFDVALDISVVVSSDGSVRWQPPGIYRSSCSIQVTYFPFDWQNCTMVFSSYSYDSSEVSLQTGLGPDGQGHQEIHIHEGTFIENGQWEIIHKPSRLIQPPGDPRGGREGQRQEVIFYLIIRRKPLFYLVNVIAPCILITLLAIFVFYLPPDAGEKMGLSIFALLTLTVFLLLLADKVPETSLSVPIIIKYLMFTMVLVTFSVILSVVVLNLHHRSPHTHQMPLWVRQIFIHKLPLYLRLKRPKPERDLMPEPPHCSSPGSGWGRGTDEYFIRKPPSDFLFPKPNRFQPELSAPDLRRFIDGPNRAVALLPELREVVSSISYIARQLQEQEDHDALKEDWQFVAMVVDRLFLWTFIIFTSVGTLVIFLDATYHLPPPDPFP
human alpha1 nicotinic acetylcholine (nACh) receptor, sequence (Q07001 22-517 partner): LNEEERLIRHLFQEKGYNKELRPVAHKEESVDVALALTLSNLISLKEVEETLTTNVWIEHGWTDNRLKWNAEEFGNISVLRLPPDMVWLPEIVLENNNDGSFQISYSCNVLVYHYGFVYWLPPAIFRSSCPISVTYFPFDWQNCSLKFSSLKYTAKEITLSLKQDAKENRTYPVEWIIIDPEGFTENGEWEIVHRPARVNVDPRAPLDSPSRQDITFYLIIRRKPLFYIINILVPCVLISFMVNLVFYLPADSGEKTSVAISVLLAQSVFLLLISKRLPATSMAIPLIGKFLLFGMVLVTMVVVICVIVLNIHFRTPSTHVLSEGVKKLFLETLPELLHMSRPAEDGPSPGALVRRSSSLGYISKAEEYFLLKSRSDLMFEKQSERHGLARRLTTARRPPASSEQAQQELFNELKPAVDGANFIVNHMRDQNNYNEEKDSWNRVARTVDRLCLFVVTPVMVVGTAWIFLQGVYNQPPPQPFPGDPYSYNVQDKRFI
Description: Cells expressing human alpha1 nicotinic acetylcholine (nACh) receptor (nAChR) were washed and dissociated using Trypsin containing buffer. Cells were then washed and seeded at a density of 3-5 million cells/mL and allowed to grow for 3 days. Then, 60-80 μL of cells were added to plates and incubated with dose response of an ARM compound of Formula (I) with a top concentration of either 10 μM or 100 μM. The receptor was then stimulated via addition of acetylcholine (ACh) and activation of the receptor was monitored via the IONFlux automated patch clamp system. IonFlux Data Analyzer software was utilized to perform leak subtraction and measure (min) peak current amplitude.
Data processing: (1) Current values recorded for vehicle only applications in individual traps/patterns were subtracted from corresponding current amplitude values for control, test article and control+test article. (2) Control response was calculated as % of the average response of the 3rd out of total 3 ACh (10 mM) applications alone. In rare situations, if the 3rd ACh response was obscured due to technical artifacts, the 2nd and/or 1st ACh (10 mM) application was considered as control. The peak current amplitude generated in the presence of each test article concentration was then used to calculate the % inhibition as compared to control response (10 mM ACh alone). These estimates were further corrected for vehicle response and run down corrected by normalizing with time matched control responses (10 mM ACh alone). The corrected percentages were then fit with a non-linear function in GraphPad Prism 6 (or later versions) to determine the IC50.
Exclusion criteria: (i) any n's with poor recording quality, (ii) control current amplitude <500 pA or (iii) significant outliers, as determined by the Grubbs test.
ARMs compounds of Formula (I) of the invention were tested for antagonism of the nAChR in the above assay in […] experimental runs and the results are shown in Table 7 below. Antagonistic activity of the compounds of Formula (I) of the invention is reported as an IC50 value (half maximal inhibitory concentration) and the maximum percentage antagonism observed at the highest concentration of compound of Formula (I) tested, as indicated in Table 7. For compounds tested in more than one experimental run, the IC50 value is reported as an average

[3] = tested on: endogenous target monocytes in human PBMC; test: PBMC ex vivo monocyte depletion flow cytometry assay (Example 200); assay type: cell-based; conditions: with anti-cotinine antibody (SEQ ID NO: 11/12), 18-24 hours, EC50 in molar, read-out: Ex Vivo Depletion Assay pEC50 (converted)
Procedure, shortened: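 Monocyte depletion is reported as pEC50, averaged or given individually across runs, and read by flow cytometry staining CD45, CD14 and CD4 with a viability dye. Compounds, diluted four-fold over 11 points from 1 mM DMSO stocks, were combined with 30 μg/mL Fc-enhanced anti-cotinine antibody and human PBMC, then incubated 18-24 h at 37° C.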

Row | SMILES | % Depletion of CCR2 expressing cells [1] [%] | IC50 [2] [nM] | Emax at 100 µM [2] [%] | EC50 [3] [nM]
1 | CC(C)N(C)[C@@H]1CC[C@H](N2CC[C@H](Nc3ncnc4ccc(C(F)(F)F)cc34)C2=O)[C@H](NC(=O)[C@H]2C[C@H](NC(=O)CCCO[C@H]3CC[C@H](OCCNC(=O)[C@H]4CC(=O)N(C)[C@@H]4c4cccnc4)CC3)C2)C1 [Example 8, (2S,3S)-N-(2-(((1R,4S)-4-(4-(((1R,3R)-3-(((1R,2S,5R)-5-(Isopropyl(methyl)amino)-2-((S)-2-oxo-3-((6-(trifluoromethyl)quinazolin-4-yl)amino)pyrrolidin-1-yl)cyclohexyl)carbamoyl)cyclobutyl)amino)-4-oxobutoxy)cyclohexyl)oxy)ethyl)-1-methyl-5-oxo-2-(pyridin-3-yl)pyrrolidine-3-carboxamide] | 90.3 | 47200 | 73.1 | –
2 | CC(C)N(C)[C@@H]1CC[C@H](N2CC[C@H](Nc3ncnc4ccc(C(F)(F)F)cc34)C2=O)[C@H](NC(=O)[C@H]2CC[C@@H](NC(=O)CCOCCCNC(=O)CCCNC(=O)[C@H]3CC(=O)N(C)[C@@H]3c3cccnc3)CC2)C1 [Example 17, (2S,3S)-N-(4-((3-(3-(((1S,4s)-4-(((1R,2S,5R)-5-(Isopropyl(methyl)amino)-2-((S)-2-oxo-3-((6-(trifluoromethyl)quinazolin-4-yl)amino)pyrrolidin-1-yl)cyclohexyl)carbamoyl)cyclohexyl)amino)-3-oxopropoxy)propyl)amino)-4-oxobutyl)-1-methyl-5-oxo-2-(pyridin-3-yl)pyrrolidine-3-carboxamide] | 91 | ≥ 100000 | 55.1 | 0.631
3 | CC(C)N(C)[C@@H]1CC[C@H](N2CC[C@H](Nc3ncnc4ccc(C(F)(F)F)cc34)C2=O)[C@H](NC(=O)[C@H]2C[C@H](NC(=O)CCOCCOCCOCCNC(=O)[C@H]3CC(=O)N(C)[C@@H]3c3cccnc3)C2)C1 [Example 27, (2S,3S)-N-(2-(2-(2-(3-(((1R,3r)-3-(((1R,2S,5R)-5-(Isopropyl(methyl)amino)-2-((S)-2-oxo-3-((6-(trifluoromethyl)quinazolin-4-yl)amino)pyrrolidin-1-yl)cyclohexyl)carbamoyl)cyclobutyl)amino)-3-oxopropoxy)ethoxy)ethoxy)ethyl)-1-methyl-5-oxo-2-(pyridin-3-yl)pyrrolidine-3-carboxamide] | 80 | 93700 | 53.8 | 10
4 | CC(C)N(C)[C@@H]1CC[C@H](N2CC[C@H](Nc3ncnc4ccc(C(F)(F)F)cc34)C2=O)[C@H](NC(=O)[C@H]2CC[C@H](N3CCN(C(=O)CCCCCCCCNC(=O)[C@H]4CC(=O)N(C)[C@@H]4c4cccnc4)CC3)CC2)C1 [Example 155, (2S,3S)-N-(9-(4-((1R,4r)-4-(((1R,2S,5R)-5-(Isopropyl(methyl)amino)-2-((S)-2-oxo-3-((6-(trifluoromethyl)quinazolin-4-yl)amino)pyrrolidin-1-yl)cyclohexyl)carbamoyl)cyclohexyl)piperazin-1-yl)-9-oxononyl)-1-methyl-5-oxo-2-(pyridin-3-yl)pyrrolidine-3-carboxamide] | 70 | – | – | 0.251
5 | CC(C)N(C)[C@@H]1CC[C@H](N2CC[C@H](Nc3ncnc4ccc(C(F)(F)F)cc34)C2=O)[C@H](NC(=O)CCCCOCCCCCCCCOCCCCNC(=O)[C@H]2CC(=O)N(C)[C@@H]2c2cccnc2)C1 [Example 161, (2S,3S)-N-(4-((8-((5-(((1R,2S,5R)-5-(Isopropyl(methyl)amino)-2-((S)-2-oxo-3-((6-(trifluoromethyl)quinazolin-4-yl)amino)pyrrolidin-1-yl)cyclohexyl)amino)-5-oxopentyl)oxy)octyl)oxy)butyl)-1-methyl-5-oxo-2-(pyridin-3-yl)pyrrolidine-3-carboxamide] | 76.67 | – | – | 0.794
6 | CC(C)N(C)[C@@H]1CC[C@H](N2CC[C@H](Nc3ncnc4ccc(C(F)(F)F)cc34)C2=O)[C@H](NC(=O)C2CCN(c3cnc(NCCOCCOCCNC(=O)[C@H]4CC(=O)N(C)[C@@H]4c4cccnc4)cn3)CC2)C1 [Example 162, N-((1R,2S,5R)-5-(Isopropyl(methyl)amino)-2-((S)-2-oxo-3-((6-(trifluoromethyl)quinazolin-4-yl)amino)pyrrolidin-1-yl)cyclohexyl)-1-(5-((2-(2-(2-((2S,3S)-1-methyl-5-oxo-2-(pyridin-3-yl)pyrrolidine-3-carboxamido)ethoxy)ethoxy)ethyl)amino)pyrazin-2-yl)piperidine-4-carboxamide] | 66 | – | – | 1.58
7 | CC(C)N(C)[C@@H]1CC[C@H](N2CC[C@H](Nc3ncnc4ccc(C(F)(F)F)cc34)C2=O)[C@H](NC(=O)[C@H]2CC[C@@H](NC(=O)C3CCC4(CC3)CCN(CCNC(=O)[C@H]3CC(=O)N(C)[C@@H]3c3cccnc3)CC4)CC2)C1 [Example 170, N-((1S,4s)-4-(((1R,2S,5R)-5-(Isopropyl(methyl)amino)-2-((S)-2-oxo-3-((6-(trifluoromethyl)quinazolin-4-yl)amino)pyrrolidin-1-yl)cyclohexyl)carbamoyl)cyclohexyl)-3-(2-((2S,3S)-1-methyl-5-oxo-2-(pyridin-3-yl)pyrrolidine-3-carboxamido)ethyl)-3-azaspiro[5.5]undecane-9-carboxamide] | 94.75 | – | – | 0.398
8 | CC(C)N(C)[C@@H]1CC[C@H](N2CC[C@H](Nc3ncnc4ccc(C(F)(F)F)cc34)C2=O)[C@H](NC(=O)C2CCN(C3CCN(C(=O)CCOCCOCCNC(=O)[C@H]4CC(=O)N(C)[C@@H]4c4cccnc4)CC3)CC2)C1 [Example 172, N-((1R,2S,5R)-5-(Isopropyl(methyl)amino)-2-((S)-2-oxo-3-((6-(trifluoromethyl)quinazolin-4-yl)amino)pyrrolidin-1-yl)cyclohexyl)-1′-(3-(2-(2-((2S,3S)-1-methyl-5-oxo-2-(pyridin-3-yl)pyrrolidine-3-carboxamido)ethoxy)ethoxy)propanoyl)-[1,4′-bipiperidine]-4-carboxamide] | 80 | – | – | 2
9 | CC(C)N(C)[C@@H]1CC[C@H](N2CC[C@H](Nc3ncnc4ccc(C(F)(F)F)cc34)C2=O)[C@H](NC(=O)CCOCCOCCO[C@H]2CC[C@H](OCCNC(=O)[C@H]3CC(=O)N(C)[C@@H]3c3cccnc3)CC2)C1 [Example 192, (2S,3S)-N-(2-(((1R,4S)-4-(2-(2-(3-(((1R,2S,5R)-5-(Isopropyl(methyl)amino)-2-((S)-2-oxo-3-((6-(trifluoromethyl)quinazolin-4-yl)amino)pyrrolidin-1-yl)cyclohexyl)amino)-3-oxopropoxy)ethoxy)ethoxy)cyclohexyl)oxy)ethyl)-1-methyl-5-oxo-2-(pyridin-3-yl)pyrrolidine-3-carboxamide] | 84.8 | 74300 | 53 | –
